In patent US20090264384A1, “INDOLE, BENZIMIDAZOLE, AND BENZOLACTAM BORONIC ACID COMPOUNDS, ANALOGS THEREOF AND METHODS OF USE THEREOF” (Nuada, Inc., priority 2004, published 2009):

Tests used:
A3(h) = target: T1, A3(h) (Homo sapiens, UniProt P0DMS8); test: A3(h) binding assay; conditions: read-out: % Inhibition of Control Specific Binding
T1 construct: expressed in transfected cells; host or cells: HEK-293 cells

α1 (non-selective) = α1 (non-selective) binding assay; design: species or system rat; conditions: 1.0E−05 M
β2(h) = target: T2, β2(h) (Homo sapiens, UniProt P07550); test: β2(h) binding assay; conditions: read-out: % Inhibition of Control Specific Binding
T2 construct: expressed in transfected cells; host or cells: Sf9 cells
T2 sequence (P07550 whole entry): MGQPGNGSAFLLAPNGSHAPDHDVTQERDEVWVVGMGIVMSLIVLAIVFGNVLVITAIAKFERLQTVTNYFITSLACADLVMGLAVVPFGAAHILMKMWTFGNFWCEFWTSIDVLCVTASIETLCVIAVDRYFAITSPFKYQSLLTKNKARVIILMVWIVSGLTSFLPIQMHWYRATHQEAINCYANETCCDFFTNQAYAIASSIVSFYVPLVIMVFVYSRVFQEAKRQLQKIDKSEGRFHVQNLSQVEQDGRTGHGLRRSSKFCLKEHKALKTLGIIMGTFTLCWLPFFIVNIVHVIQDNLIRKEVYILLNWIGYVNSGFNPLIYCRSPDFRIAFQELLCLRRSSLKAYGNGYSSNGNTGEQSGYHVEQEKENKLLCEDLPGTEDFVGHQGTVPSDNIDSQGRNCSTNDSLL

CCKA(h) (CCK1) = target: T3, CCKA(h) (CCK1) (Homo sapiens, UniProt P32238); test: CCKA(h) (CCK1) binding assay; conditions: read-out: % Inhibition of Control Specific Binding
T3 construct: expressed in transfected cells; host or cells: CHO cells
T3 sequence (P32238 whole entry): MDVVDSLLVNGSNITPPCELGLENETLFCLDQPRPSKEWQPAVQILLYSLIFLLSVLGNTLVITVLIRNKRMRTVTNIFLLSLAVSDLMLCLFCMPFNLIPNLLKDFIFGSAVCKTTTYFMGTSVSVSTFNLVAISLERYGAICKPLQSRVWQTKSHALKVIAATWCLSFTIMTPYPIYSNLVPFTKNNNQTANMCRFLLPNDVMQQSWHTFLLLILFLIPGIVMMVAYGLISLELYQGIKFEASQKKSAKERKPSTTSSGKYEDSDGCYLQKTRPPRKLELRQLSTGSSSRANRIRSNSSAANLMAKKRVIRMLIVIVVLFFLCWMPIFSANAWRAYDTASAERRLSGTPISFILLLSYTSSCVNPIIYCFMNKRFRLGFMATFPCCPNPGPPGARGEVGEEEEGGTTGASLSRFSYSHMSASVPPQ

CRF1 = target: T4, CRF1 (Rattus norvegicus, UniProt P35353); test: CRF1 binding assay; conditions: read-out: % Inhibition of Control Specific Binding
T4 construct: from tissue; host or cells: rat pituitary gland
T4 sequence (P35353 24-415): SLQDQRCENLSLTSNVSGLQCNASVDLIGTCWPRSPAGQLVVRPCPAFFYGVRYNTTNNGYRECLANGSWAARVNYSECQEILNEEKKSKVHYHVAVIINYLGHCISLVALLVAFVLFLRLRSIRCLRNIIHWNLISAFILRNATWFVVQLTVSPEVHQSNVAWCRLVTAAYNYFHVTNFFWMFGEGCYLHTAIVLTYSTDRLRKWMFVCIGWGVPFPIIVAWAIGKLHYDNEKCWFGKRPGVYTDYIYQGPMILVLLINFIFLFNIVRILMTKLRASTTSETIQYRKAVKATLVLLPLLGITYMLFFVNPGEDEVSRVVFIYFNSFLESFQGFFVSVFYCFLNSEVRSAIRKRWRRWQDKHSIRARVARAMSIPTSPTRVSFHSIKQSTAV

Glucocorticoid(h) (GR) = target: T5, Glucocorticoid(h) (GR) (Homo sapiens, UniProt P04150); test: Glucocorticoid(h) (GR) binding assay; conditions: 1.0E−05 M; read-out: % Inhibition of Control Specific Binding
T5 construct: Glucocorticoid(h); IM-9 cells; dexamethasone; Clark et al. (1996); endogenous in cells; host or cells: IM-9 cells (cytosol)
T5 sequence (P04150 whole entry): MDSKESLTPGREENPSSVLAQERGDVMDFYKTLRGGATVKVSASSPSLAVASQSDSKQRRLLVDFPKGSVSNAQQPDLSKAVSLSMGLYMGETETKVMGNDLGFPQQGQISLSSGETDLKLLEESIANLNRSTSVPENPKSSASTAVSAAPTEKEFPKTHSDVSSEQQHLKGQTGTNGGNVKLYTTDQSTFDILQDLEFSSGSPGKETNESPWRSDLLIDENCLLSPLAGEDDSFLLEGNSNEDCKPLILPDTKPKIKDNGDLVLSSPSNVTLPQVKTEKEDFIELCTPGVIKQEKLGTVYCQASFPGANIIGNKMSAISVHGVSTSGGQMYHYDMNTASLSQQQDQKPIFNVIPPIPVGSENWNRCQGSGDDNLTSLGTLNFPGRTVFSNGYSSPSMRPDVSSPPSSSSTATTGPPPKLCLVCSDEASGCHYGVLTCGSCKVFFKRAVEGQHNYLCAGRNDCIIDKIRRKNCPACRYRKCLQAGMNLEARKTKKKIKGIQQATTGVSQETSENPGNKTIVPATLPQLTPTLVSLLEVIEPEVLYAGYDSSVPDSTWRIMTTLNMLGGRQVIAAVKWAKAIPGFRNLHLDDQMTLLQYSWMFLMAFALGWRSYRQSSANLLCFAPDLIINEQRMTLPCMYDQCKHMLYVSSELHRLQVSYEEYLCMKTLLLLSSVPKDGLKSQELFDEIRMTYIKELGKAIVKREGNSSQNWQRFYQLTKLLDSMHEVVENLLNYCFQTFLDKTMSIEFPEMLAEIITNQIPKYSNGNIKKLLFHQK

Estrogen(h) (ER) = target: T6, Estrogen(h) (ER) (Homo sapiens, UniProt P03372); test: Estrogen(h) (ER) binding assay; conditions: 1.0E−05 M
T6 construct: Estrogen(h); MCF-7 cells; 17-β-estradiol; Sheen et al. (1985); endogenous in cells; host or cells: MCF-7 cells (cytosol)
T6 sequence (P03372 whole entry): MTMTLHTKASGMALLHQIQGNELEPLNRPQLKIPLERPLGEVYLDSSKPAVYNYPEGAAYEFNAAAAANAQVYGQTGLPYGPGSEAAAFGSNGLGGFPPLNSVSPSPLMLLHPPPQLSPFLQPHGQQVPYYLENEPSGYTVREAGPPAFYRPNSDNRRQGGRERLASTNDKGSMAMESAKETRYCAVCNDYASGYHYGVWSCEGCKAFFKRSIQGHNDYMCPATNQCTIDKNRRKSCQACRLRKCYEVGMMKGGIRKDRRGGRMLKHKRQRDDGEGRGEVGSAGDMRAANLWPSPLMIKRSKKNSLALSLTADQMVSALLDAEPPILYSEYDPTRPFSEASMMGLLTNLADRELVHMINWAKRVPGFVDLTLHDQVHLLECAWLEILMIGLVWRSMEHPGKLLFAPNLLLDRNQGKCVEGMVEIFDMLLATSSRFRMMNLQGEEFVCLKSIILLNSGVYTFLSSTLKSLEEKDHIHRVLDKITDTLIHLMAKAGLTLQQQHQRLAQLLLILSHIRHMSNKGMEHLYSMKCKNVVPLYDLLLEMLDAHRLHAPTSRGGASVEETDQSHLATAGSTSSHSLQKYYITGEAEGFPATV

Androgen(h) (AR) = target: T7, Androgen(h) (AR) (Homo sapiens, UniProt P10275, T878A); test: Androgen(h) (AR) binding assay; conditions: 1.0E−05 M; read-out: % Inhibition of Control Specific Binding
T7 construct: LNCaP cells; endogenous in cells; host or cells: LNCaP cells (cytosol)
T7 sequence (P10275 whole entry T878A): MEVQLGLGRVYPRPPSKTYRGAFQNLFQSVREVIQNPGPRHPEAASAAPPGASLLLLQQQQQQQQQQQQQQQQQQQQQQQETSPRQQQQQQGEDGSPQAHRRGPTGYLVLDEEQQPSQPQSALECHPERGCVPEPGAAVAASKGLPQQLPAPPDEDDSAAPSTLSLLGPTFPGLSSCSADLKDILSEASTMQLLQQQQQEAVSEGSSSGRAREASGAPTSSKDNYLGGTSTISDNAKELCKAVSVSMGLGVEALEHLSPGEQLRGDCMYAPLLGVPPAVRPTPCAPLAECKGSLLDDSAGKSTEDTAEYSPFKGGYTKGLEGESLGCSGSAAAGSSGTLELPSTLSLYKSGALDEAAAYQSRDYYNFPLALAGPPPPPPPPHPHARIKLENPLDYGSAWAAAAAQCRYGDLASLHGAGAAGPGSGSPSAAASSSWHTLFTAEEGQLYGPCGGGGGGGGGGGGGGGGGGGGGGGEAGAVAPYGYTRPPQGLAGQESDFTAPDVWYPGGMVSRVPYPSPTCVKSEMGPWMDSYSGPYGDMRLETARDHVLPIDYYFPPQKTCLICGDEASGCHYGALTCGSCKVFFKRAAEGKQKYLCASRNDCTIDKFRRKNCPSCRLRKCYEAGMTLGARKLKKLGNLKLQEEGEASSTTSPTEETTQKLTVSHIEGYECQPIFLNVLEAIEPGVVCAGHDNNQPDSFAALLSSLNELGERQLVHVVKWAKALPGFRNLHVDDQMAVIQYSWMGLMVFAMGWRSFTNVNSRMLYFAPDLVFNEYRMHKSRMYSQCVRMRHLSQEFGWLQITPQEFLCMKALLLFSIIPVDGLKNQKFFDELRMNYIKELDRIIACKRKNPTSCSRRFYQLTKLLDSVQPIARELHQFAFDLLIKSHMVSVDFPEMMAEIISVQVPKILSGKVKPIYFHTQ

Na^+ channel (site 2) = assay type: binding, rat; conditions: 1.0E−05 M
[1] = target: T8, Phenylethanolamine-N-methyl transferase (Bos taurus, UniProt P10938); test: Phenylethanolamine-N-methyl transferase enzyme assay; assay type: biochemical, bovine; conditions: 1.0E−05 M
T8 construct: bovine adrenal; from tissue; host or cells: bovine adrenal medulla
T8 sequence (P10938 whole entry): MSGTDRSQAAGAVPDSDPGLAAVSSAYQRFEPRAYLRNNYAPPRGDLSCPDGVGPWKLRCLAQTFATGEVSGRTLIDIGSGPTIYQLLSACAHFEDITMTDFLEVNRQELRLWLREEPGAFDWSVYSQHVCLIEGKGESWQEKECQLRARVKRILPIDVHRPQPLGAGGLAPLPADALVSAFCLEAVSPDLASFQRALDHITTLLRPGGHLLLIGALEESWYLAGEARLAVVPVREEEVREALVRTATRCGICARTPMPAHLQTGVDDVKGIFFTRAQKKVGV

CYP2C9 = CYP2C9 (Homo sapiens, UniProt P11712); test: ADME-Tox: In vitro Metabolism (Cytochrome P450, fluorogenic substrates BFC, CEC, MFC); design: inhibition: dose or concentration left out as unconfirmed; conditions: human
Sequence of CYP2C9 (P11712 whole entry): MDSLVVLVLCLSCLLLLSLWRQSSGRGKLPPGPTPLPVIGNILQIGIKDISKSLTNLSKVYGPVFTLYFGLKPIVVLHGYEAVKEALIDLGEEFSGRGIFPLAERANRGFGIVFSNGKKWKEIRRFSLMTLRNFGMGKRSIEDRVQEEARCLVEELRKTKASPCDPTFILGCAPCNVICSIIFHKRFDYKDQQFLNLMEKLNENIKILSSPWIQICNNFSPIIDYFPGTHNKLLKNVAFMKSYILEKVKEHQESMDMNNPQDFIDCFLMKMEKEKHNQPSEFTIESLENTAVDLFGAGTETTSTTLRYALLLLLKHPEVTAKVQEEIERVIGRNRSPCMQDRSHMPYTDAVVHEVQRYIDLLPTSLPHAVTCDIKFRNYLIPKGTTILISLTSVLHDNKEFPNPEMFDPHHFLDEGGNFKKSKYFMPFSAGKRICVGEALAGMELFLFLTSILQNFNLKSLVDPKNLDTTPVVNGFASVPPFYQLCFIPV

[2] = system: chronic colitis provoked by trinitrobenzene sulphonic acid (TNBS); test: Rat model of chronic colitis provoked by TNBS over 14 days, treatment from Day 1; assay type: in vivo
[3] = 50 mg/kg/day p.o. from Day 1, Day 14, vs CMC group

T1 sequence (P0DMS8 whole entry): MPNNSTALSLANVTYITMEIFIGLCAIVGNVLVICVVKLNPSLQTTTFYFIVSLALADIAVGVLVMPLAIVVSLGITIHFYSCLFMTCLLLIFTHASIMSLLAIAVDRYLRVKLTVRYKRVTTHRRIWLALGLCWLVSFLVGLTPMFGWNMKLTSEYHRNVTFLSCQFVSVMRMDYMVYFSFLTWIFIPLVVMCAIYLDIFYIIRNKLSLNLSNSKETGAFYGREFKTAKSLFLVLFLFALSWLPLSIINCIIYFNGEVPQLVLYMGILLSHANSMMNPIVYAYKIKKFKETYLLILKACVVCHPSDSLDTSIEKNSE

| SMILES | inhibition at 10 µM (A3(h)) [%] | % Inhibition of Control Specific Binding (α1 (non-selective)) [%] | inhibition at 10 µM (β2(h)) [%] | inhibition at 10 µM (CCKA(h) (CCK1)) [%] | inhibition at 10 µM (CRF1) [%] | inhibition at 10 µM (Glucocorticoid(h) (GR)) [%] | % Inhibition of Control Specific Binding (Estrogen(h) (ER)) [%] | inhibition at 10 µM (Androgen(h) (AR)) [%] | % Inhibition of Control Specific Binding (Na^+ channel (site 2)) [%] | % Inhibition of Control Values [1] [%] | inhibition (CYP2C9) [%] | macroscopic Damage Score ([2]; 50 mg/kg/day p.o. from Day 1, Day 14) | reduction in colon weight [2, 3] | reduction in colonic MPO activity [2, 3] | reduction in colonic TNF-α levels [2, 3] | reduction in colonic lesion area (% of the total area measured) [2, 3] | attenuation of TNBS-induced fall in body weight (% change of body weight at Day −1) ([2]; 50 mg/kg/day p.o. in divided doses from Day 1, over 14 days, vs CMC group) |
| --- | --- | --- | --- | --- | --- | --- | --- | --- | --- | --- | --- | --- | --- | --- | --- | --- | --- |
| N#Cc1ccc2c(ccn2CCCCCB(O)O)c1 [Example 20, 5-(5-cyano-1H-indol-1-yl)pentylboronic acid] | -12 | 21 | 5 | 7 | -23 | -7 | 3 | 40 | 13 | 1 | 73 |  |  |  |  |  |  |
| O=C(O)c1cc(/N=N/c2ccc(S(=O)(=O)Nc3ccccn3)cc2)ccc1O [sulfasalazine, reference compound] |  |  |  |  |  |  |  |  |  |  |  | reduced the damage score | significant (P<0.05) reduction in colon weight | significantly (P<0.001) reduced the elevated colonic levels of MPO | significantly reduced the elevated colonic levels of TNF-α | significantly (P<0.001) reduced the extent of macroscopic injury | reached statistical significance compared with the CMC challenged group on at Day 2, 3, 6 and 7 |
